The values below come from patent publication US20110251238A1, “PPAR AGONIST COMPOSITIONS AND METHODS OF USE” (BIOPHARMED, priority 2008, published 2011).

The test system of assay [1] is KaKa. The assay can be described thus: Growth inhibition, MTT colorimetric assay, KaKa. As to conditions: 72 h; 3 days with drug; means of six values; unit inferred; read-out: IC50 KaKa. It is filed as cell-based. In short, it runs like this: (§1)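 MTT colorimetric measurement of proliferation gives the IC50, averaged from six separate values. Drug exposure lasted 3 days.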
A general note: Tetrazolium assays rely on reduction of a dye to a coloured formazan, in cell work by metabolically active cells.

Assay [2] has as its system U138 MG (human glioma). The assay can be described thus: Growth inhibition, MTT colorimetric assay, U138. The format is cell-based. As to conditions: Homo sapiens, U138-MG, 72 h; glioma; 3 days with drug; means of six values; unit inferred; read-out: IC50 U138. In short, it runs like this:
(§2)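 Reported IC50 values average six determinations, with standard error under 5% relative to the mean. Inhibition was scored by MTT after a 3-day culture with the drugs.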

The test system of assay [3] is LoVo (colon cancer). The assay can be described thus: Growth inhibition, MTT colorimetric assay, LoVo. Conditions: Homo sapiens, LoVo, 72 h; carcinoma; 3 days with drug; means of six values; unit inferred; read-out: IC50 LoVo. The format is cell-based. In short, it runs like this: (§3)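 Human tumour cell lines were exposed to compounds for 3 days. Proliferation inhibition was read by MTT colorimetric assay and expressed as IC50. Values are means of six determinations.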

Assay [4] has as its system A549 (human lung adenocarcinoma epithelial). The assay can be described thus: Growth inhibition, MTT colorimetric assay, A549. It is filed as cell-based. Conditions: Homo sapiens, A549, 72 h; carcinoma; 3 days with drug; means of six values; unit inferred; read-out: IC50 A549. The method in brief: as §3
Assay [5] relates to HT-22, an immortalized mouse hippocampal cell line. The assay is described as follows: Neuroprotection of HT-22 cells against toxic insults (calcein viability assay). The format is cell-based. Here is the method:
It is known (P. Aoun, 2003 Eur. J. Pharm. 472:65-71) that Peroxisome proliferator-activated receptors (PPARs) are involved in regulating many metabolic and inflammatory processes. The present invention explores the role of PPAR ligands in protecting neuronal cultures from toxic insults. For that purpose, the new PPAR agonists described in Example 1 were screened for their potential role as neuroprotective compounds. Experiments were performed using HT-22, an immortalized mouse hippocampal cell line, and SK-N-SH, a human neuroblastoma cell line. HT-22 was selected because it expresses PPARγ receptors. Cell viability against glutamate, hydrogen peroxide (H2O2), and serum deprivation insults was determined using a calcein assay. […] Additionally, compounds were protective even when administered simultaneously with glutamate, or for up to 8 h postglutamate insult.
HT-22, an immortalized mouse hippocampal cell line, and SK-N-SH, a human neuroblastoma cell line, were used. HT-22 cells were obtained from David Schubert (Salk Institute, San Diego, Calif.). The HT-22 line was originally selected from HT-4 cells based on glutamate sensitivity. SK-N-SH cells were obtained from ATCC (Manassas, Va.). HT-22 and SK-N-SH cells were grown to confluency in Dulbecco's modified essential medium (DMEM) and RPMI-1640 media, respectively, and supplemented with 10% charcoal/dextran-treated fetal bovine serum (FBS) and […] gentamicin at 37° C. under 95% air/5% CO2. HT-22 cells were plated at a density of 50,000 cells/ml (5000 cells/well), and SK-N-SH cells were plated at a density of 120,000-150,000 cells/ml (12,000-15,000 cells/well) in 96-well plates. In most studies, wells were pretreated with PPAR ligands over a wide dose range at various times prior to being subjected to either glutamate, hydrogen peroxide, or serum deprivation insults. In some studies, the insults were applied prior to the addition of the PPAR ligand.
The following analogues were tested on the HT22 cell line for their neuroprotective effect against glutamate insult and for their anti-inflammatory activity on relevant, models including HT22 cell line.

The subject of assay [6] is caspases 3/7. The assay can be described thus: Caspases 3/7 activation in HL60 cells (DEVD reagent). It is filed as cell-based, human. Conditions: 48 hours. From the text: 7223, using standard commercially available diagnostic kits (Calbiochem, USA). Assay reagents used were DEVD for caspases 3/7, […] for caspases 8, and LEHD for caspases 9. Moreover, colchicine was used as reference compound that induces this activity of caspases.

The subject of assay [7] is B16-F10 (mouse melanoma). The assay is described as follows: Growth inhibition, MTT colorimetric assay, B16F10. As to conditions: Mus musculus, B16-F10, 72 h; melanoma; 3 days with drug; means of six values; unit inferred; read-out: IC50 B16F10. It is filed as cell-based. The method in brief:
as §2

The subject of assay [8] is RhTP (rhabdomyosarcoma). The assay is described as follows: Growth inhibition, MTT colorimetric assay, RhTp. The format is cell-based. Conditions: 72 h; 3 days with drug; means of six values; unit inferred; read-out: IC50 RhTp. The method in brief: as §1

Regarding `Oc1ccc(CN(Cc2ccc(C(F)(F)F)cc2)Cc2ccc(O)c3ncccc23)c2cccnc12` [BPM18,708, 5,5′-(4-(trifluoromethyl)benzylazanediyl)bis(methylene)diquinolin-8-ol], the half-inhibitory concentration (IC50) (as a rule, the concentration at which inhibition is half-maximal) is 1580 nM in assay [1]; 49 nM in assay [2]; 10 nM in assay [3]; 8 nM in assay [4]; 92 nM in assay [7]; 81 nM in assay [8]. In addition, the “neuroprotection from H2O2 insult” value in assay [5] is listed as “dose-dependent neuroprotection”. Besides, the “neuroprotection from glutamate insult” value in assay [5] is “dose-dependent neuroprotection”. Moreover, the “activation of caspases 3/7” value in assay [6] (0.01 μM) is listed as “neither BPM18,708 nor BPM19,107 has an effect”; in assay [6] (0.1 μM), “strong effect”; in assay [6] (1 μM), “strong effect”.
